Here are results for 8 substances from patent US9249208B2, “Citrulline peptides derived from fibrin and recognized by rheumatoid arthritis specific autoantibodies, and the use thereof” (Biomerieux, priority 2004, dated 2016).

Common to all, as to format: binding, human
The test system of assay [1] is anti-citrullinated protein autoantibodies (ACPAs). The experiment in a line: ELISA of citrullinated/native fibrin peptide pairs with serum mixtures A and B and control mixture (delta OD). Particulars: mean of two determinations. On the procedure:
Each pair of peptides (citrullinated and noncitrullinated) was assayed by ELISA with a mixture, in equal parts, of 10 sera having no ACPAs (control mixture) and with the 2 mixtures A and B described in Example 1.
Each pair of peptides (native and citrullinated form) was tested on the same plate and a pair of control peptides—citrullinated “filaggrin” peptide cfc6 and its corresponding native peptide cf0 (Schellekens G A, 1998, mentioned above)—was included in each experiment, which made it possible to calculate an inter-assay coefficient of variation and to perform corrections.
All the incubations were carried out for 1 h at 4° C. and were followed by washing in PBS-0.1% Tween. The peroxidase activity was visualized with a solution of ortho-phenylenediamine (2 mg/ml—Sigma) in hydrogen peroxide (0.03%—Sigma). The reaction was stopped after 5 minutes by adding 4M sulfuric acid, and the optical density (OD) at 492 nm was measured by virtue of an automatic spectrophotometer (Multiskan, Thermo Labsystems).
The specific reactivity of the mixtures of sera with regard to the citrullinated peptides corresponded to the difference between the OD obtained with the citrullinated peptide and that obtained with the corresponding native peptide (delta OD). The results correspond to the mean of two determinations. Any citrullinated peptide making it possible to obtain a delta OD of greater than 0.250 for at least one of the two mixtures A and B after coating in at least one of the three buffers, was considered to be reactive.
(In general: An ELISA detects its analyte on a solid surface through an enzyme-linked reagent.)

For assay [2] the test system is unchanged. Briefly: ELISA of reactive citrullinated fibrin peptides with the 20 individual sera of mixtures A and B. Particulars: for Number of positive sera: sera with delta OD not <0.25 out of sera tested (20, or 10 of mixture A only); for delta OD: best coating buffer per peptide. As to the method: The 14 peptides carrying the most reactive epitopes (delta OD≧0.5 for one or other of the mixtures of serum (A and B) with at least one of the three coating buffers) were tested independently with the 20 sera constituting the mixtures A and B, in order to evaluate the reactivity profile of each of these peptides. The tests were carried out by ELISA under the same conditions as in Example 2 above, with the exception that, for each pair of peptides, the coating buffer selected was that that had made it possible to obtain the strongest reactivity with respect to this peptide during the screening (the buffer for which the sum of the delta ODs obtained respectively for the serum mixtures A and B was at a maximum). […] Thus, for each serum, the dilution that made it possible to obtain an OD of 1 by ELISA on deiminated fibrinogen was selected (Nogueira L, 2002, mentioned above). The dilutions ranged from 1/20 to 1/2700.

Assay [3] has the same test system. Briefly: ELISA comparing amidated and nonamidated β60-74Cit60,72,74 with serum mixtures A and B. As to conditions: coating in PBS, versus noncitrullinated β60-74, mean of two experiments. The source says:
ELISA plates were coated with the peptide β60-74Cit60,72,74, in which the C-terminal function of the carboxy-terminal citrullyl residue is not amidated (form carrying a terminal COOH function, hereinafter referred to as “nonamidated form”), with the peptide […], in which the C-terminal function of the carboxy-terminal citrullyl residue is amidated (form carrying a terminal CONH2 function, hereinafter referred to as “amidated form”) and the noncitrullinated peptide β60-74 (in which the C-terminal function of the carboxy-terminal arginyl residue is not amidated), all diluted in PBS. The serum mixtures A and B described in Example 1 were tested according to the method described in Example 2. As in Example 2, the specific reactivity of the peptide in nonamidated form or in amidated form corresponded to the difference between the OD obtained with these two citrullinated peptides and that obtained with the noncitrullinated peptide β60-74. […] The results correspond to the mean of two experiments, each comprising two determinations.

[4] abbreviates: Mixture A of sera 1/50, coating buffer PBS pH 7.4.
Setting [5] is: Mixture A of sera 1/50, coating buffer acetate pH 5.0.
Setting [6] is: Mixture A of sera 1/50, coating buffer carbonate pH 9.0.
[7] abbreviates: Mixture B of sera 1/50, coating buffer PBS pH 7.4.
Setting [8] is: Mixture B of sera 1/50, coating buffer acetate pH 5.0.
Setting [9] is: Mixture B of sera 1/50, coating buffer carbonate pH 9.0.

Where no end group is shown, it is not given here. [ ]: non-standard residue; d: D form. Cit = NC(=O)NCCC[C@H](N)C(=O)O

As to “α259-273Cit263,271: citrullinated synthetic peptide, fibrin α-chain residues 259-273 (second series) (MELE[Cit]PGGNEIT[Cit]GG)”, the “delta OD (citrullinated minus native peptide, 492 nm)” value in assay [1] (setting [4]) was 0.60; in assay [1] (setting [5]), 0.14; in assay [1] (setting [6]), 0.12; in assay [1] (setting [7]), 0.69; in assay [1] (setting [8]) it was 0.21; in assay [1] (setting [9]), 0.20. In addition, in assay [2], the “Number of positive sera” value is given as 13/20. The “delta OD” value came out at 0.29 in assay [2] (serum 97.0311, dilution 1/200); 0.32 in assay [2] (serum 97.0468, dilution 1/700); 0.39 in assay [2] (serum 97.1474, dilution 1/20).
For “α561-575Cit573: citrullinated synthetic peptide, fibrin α-chain residues 561-575 (SSHHPGIAEFPS[Cit]GK)”, the “delta OD (citrullinated minus native peptide, 492 nm)” value in assay [1] (setting [4]) was determined as 0.30; in assay [1] (setting [5]), 0.05; in assay [1] (setting [6]), 0.01; in assay [1] (setting [7]) it was 0.52; in assay [1] (setting [8]) it was 0.14; in assay [1] (setting [9]), 0.17. Moreover, the “Number of positive sera” value in assay [2] is given as 5/20. Also, the “delta OD” value in assay [2] (serum 97.0311, dilution 1/200) was determined as 0.30; in assay [2] (serum 97.0459, dilution 1/60) it was 0.38; in assay [2] (serum 97.0794, dilution 1/50), 1.95; in assay [2] (serum 97.1474, dilution 1/20), 0.71; in assay [2] (serum 97.1548, dilution 1/60), 0.53.
Regarding “α588-602Cit591: citrullinated synthetic peptide, fibrin α-chain residues 588-602 (second series) (SYN[Cit]GDSTFESKSYK)”, the “delta OD (citrullinated minus native peptide, 492 nm)” value in assay [1] (setting [4]) worked out at 0.16; in assay [1] (setting [5]) it was 0.05; in assay [1] (setting [6]) it was 0.36; in assay [1] (setting [7]) it was 0.33; in assay [1] (setting [8]) it was 0.06; in assay [1] (setting [9]), 0.67. Besides, the “Number of positive sera” value in assay [2] is given as 2/20. Further, the “delta OD” value came out at 1.34 in assay [2] (serum 97.0169, dilution 1/400) and 0.79 in assay [2] (serum 97.1795, dilution 1/50).
As to “α501-515Cit510,512: citrullinated synthetic peptide, fibrin α-chain residues 501-515; fits SEQ ID NO: 3 SGIGTLDGFX1HX2HPD (SGIGTLDGF[Cit]H[Cit]HPD)”, the “delta OD (citrullinated minus native peptide, 492 nm)” value in assay [1] (setting [4]) was 0.92; in assay [1] (setting [5]) it was 0.16; in assay [1] (setting [6]) it was 0.15; in assay [1] (setting [7]) it was 2.60; in assay [1] (setting [8]) it was 0.72; in assay [1] (setting [9]), 0.79. Besides, the “Number of positive sera” value in assay [2] was 9/20. Also, the “delta OD” value was determined as 2.37 in assay [2] (serum 95.0256, dilution 1/35); 3.23 in assay [2] (serum 97.0323, dilution 1/120); 2.88 in assay [2] (serum 97.0388, dilution 1/50); 0.44 in assay [2] (serum 97.0506, dilution 1/75); 2.85 in assay [2] (serum 97.0524, dilution 1/200); 0.69 in assay [2] (serum 97.0530, dilution 1/50). The “delta OD” value in assay [2] (serum 97.0794, dilution 1/50) is 3.30; in assay [2] (serum 97.1436, dilution 1/150), 2.80; in assay [2] (serum 97.1715, dilution 1/300), 1.79.
In the case of “β60-74Cit60, 72, 74 nonamidated: citrullinated synthetic peptide, fibrin β-chain residues 60-74, C-terminal citrullyl not amidated (terminal COOH) (RPAPPPISGGGYRAR; HELM PEPTIDE1{[Cit].P.A.P.P.P.I.S.G.G.G.Y.[Cit].A.[Cit]}$$$$V2.0; N-terminus assumed; SMILES CC[C@H](C)[C@H](NC(=O)[C@@H]1CCCN1C(=O)[C@@H]1CCCN1C(=O)[C@@H]1CCCN1C(=O)[C@H](C)NC(=O)[C@@H]1CCCN1C(=O)[C@@H](N)CCCNC(N)=O)C(=O)N[C@@H](CO)C(=O)NCC(=O)NCC(=O)NCC(=O)N[C@@H](Cc1ccc(O)cc1)C(=O)N[C@@H](CCCNC(N)=O)C(=O)N[C@@H](C)C(=O)N[C@@H](CCCNC(N)=O)C(=O)O)”, the entries for the “delta OD” value in assay [3] (Mixture A) and in assay [3] (Mixture B) were 0.30 and 1.16, respectively.
On to “α36-50Cit38,42: citrullinated synthetic peptide, fibrin α-chain residues 36-50; fits SEQ ID NO: 2 GPX1VVEX2HQSACKDS (GP[Cit]VVE[Cit]HQSACKDS)”, for which the “delta OD (citrullinated minus native peptide, 492 nm)” value was found to be 2.69 in assay [1] (setting [4]); 4.00 in assay [1] (setting [5]); 3.43 in assay [1] (setting [6]); 2.65 in assay [1] (setting [7]); 4.27 in assay [1] (setting [8]); 2.64 in assay [1] (setting [9]). The “Number of positive sera” value in assay [2] is listed as 12/20. For the same substance, the “delta OD” value is 2.35 in assay [2] (serum 95.0256, dilution 1/35); 0.71 in assay [2] (serum 97.0311, dilution 1/200); 1.87 in assay [2] (serum 97.0323, dilution 1/120); 3.32 in assay [2] (serum 97.0388, dilution 1/50); 3.55 in assay [2] (serum 97.0459, dilution 1/60); 3.39 in assay [2] (serum 97.0524, dilution 1/200). The “delta OD” value in assay [2] (serum 97.0530, dilution 1/50) is reported as 2.97; in assay [2] (serum 97.0794, dilution 1/50) it was 3.43; in assay [2] (serum 97.1436, dilution 1/150), 3.30; in assay [2] (serum 97.1474, dilution 1/20) it was 1.93; in assay [2] (serum 97.1715, dilution 1/300), 3.50; in assay [2] (serum 97.1795, dilution 1/50) it was 2.29.
In the case of “α411-425Cit425: citrullinated synthetic peptide, fibrin α-chain residues 411-425 (GTFEEVSGNVSPGT[Cit])”, the “delta OD (citrullinated minus native peptide, 492 nm)” value in assay [1] (setting [4]) is 0.16; in assay [1] (setting [5]), 0.09; in assay [1] (setting [6]), 0.56; in assay [1] (setting [7]), 0.66; in assay [1] (setting [8]), 0.38; in assay [1] (setting [9]) it was 0.43. Moreover, the “Number of positive sera” value in assay [2] is listed as 1/20. In addition, the “delta OD” value in assay [2] (serum 97.1210, dilution 1/300) was found to be 0.84.
Take “α546-560Cit547: citrullinated synthetic peptide, fibrin α-chain residues 546-560 (S[Cit]GSESGIFTNTKES)”: the “delta OD (citrullinated minus native peptide, 492 nm)” value in assay [1] (setting [4]) is recorded as 0.74; in assay [1] (setting [5]) it was 0.38; in assay [1] (setting [6]) it was 0.33; in assay [1] (setting [7]) it was 0.15; in assay [1] (setting [8]), 0.05; in assay [1] (setting [9]), 0.16. Besides, the “Number of positive sera” value in assay [2] was 2/10. In addition, the “delta OD” value stood at 0.44 in assay [2] (serum 97.0530, dilution 1/50) and 1.18 in assay [2] (serum 97.0796, dilution 1/500).
